Entries after “also recorded” stand apart in the source; their conditions may differ. Where a name gives a salt, the structure may show the parent alone. Read-outs that look alike come from different tables or passages of the source. Marks after values point to notes of the source that are not given here.
Experiments:
[1] = Physical stability on exposure to elevated relative humidity (deliquescence); format: physicochemical; settings: RT
Description: Each cocrystal was also exposed to elevated relative humidity (first ˜75% RH, then ˜97% RH) for specified time periods (Table 20).

[2] = Aqueous solubility estimate in water by solvent addition method; settings: for Solubility Estimate: solvent addition method, visual assessment, rounded to nearest whole number
[3] = Chemical stability under temperature/humidity stress, HPLC purity at t=0 and t=14 days; settings: for Purity after 60° C./75% RH, 2 weeks / Purity after 60° C./ambient RH, 2 weeks: HPLC; for Chemical stability under the stressed conditions (in words): 60° C./ambient RH and 60° C./75% RH; for Purity after 60° C./75% RH, 2 weeks / Chemical stability under the stressed conditions (in words) / Purity after 60° C./ambient RH, 2 weeks: 2 weeks; for Purity T = 0: unstressed, t=0, HPLC
Experimental: (§1) High Performance Liquid Chromatography (HPLC): HPLC analyses were performed using an Agilent 1100 series liquid chromatograph equipped with a variable wavelength detector and binary pump for sequence file 552094, and a diode array detector and quaternary pump for the remaining sequences. […] Degasser and an autosampler (set to ˜5° C.) were equipped for all sequences. The chromatographic column was a 150×4.6 mm Aquasil C18 column with 3 μm packing (Thermo Scientific). The column temperature was set to 40° C., and the detector wavelength was 280 nm with a bandwidth of 8 nm. The injection volume was 15 μL. Mobile phase A was 0.1% TFA in Water, and mobile phase B was 0.1% TFA in Acetonitrile. The flow rate used was 0.5 L/minute. Mobile phases were filtered and degassed through a 0.45 μm nylon filter under vacuum prior to use, except for Mobile phase A used in sequence file 554410 due to time constraints.
(§2) The physical and chemical stability of the glycolic acid, hippuric acid, malonic acid, and saccharin cocrystals were evaluated at two stress conditions (60° C./ambient relative humidity and 60° C./75% relative humidity) and compared to MLN4924 HCl salt.
(§3) Chemical stability was assessed via HPLC analysis of samples at t=0 and t=14 days.

[4] = 2 weeks
Experimental: as §1, §2, §3

[5] = physchem; settings: water, thermodynamic from solid
[6] = Physical stability under temperature/humidity stress, XRPD comparison of unstressed and stressed samples; format: physicochemical; settings: 60° C./75% RH, 2 weeks; listed as MLN4924-HCl
Experimental: Physical stability was assessed by comparison of XRPD patterns of the unstressed and stressed samples.

[7] = cited from earlier work
[8] = listed as Glycolic acid (Form A)
[9] = listed as Hippuric acid (Form B)
[10] = listed as Malonic acid (Form M)

In the case of NS(=O)(=O)OC[C@@H]1C[C@@H](n2ccc3c(N[C@H]4CCc5ccccc54)ncnc32)C[C@@H]1O [Form A, ((1S,2S,4R)-4-{4-[(1S)-2,3-dihydro-1H-inden-1-ylamino]-7H-pyrrolo[2,3-d]pyrimidin-7-yl}-2-hydroxycyclopentyl)methyl sulfamate], the “Observations After Stress” value ([1]; ~75% RH stress, ~3 days) is reported as “Free flowing solids”, the “Observations After Stress” value ([1]; ~97% RH stress, ~2 days) is reported as “Free flowing solids” and the “Solubility Estimate” value [2] is reported as <1^c mg/mL. The “Purity after 60° C./75% RH, 2 weeks” value [3, 8] was 93.0%, the “Chemical stability under the stressed conditions (in words)” value (“Chemical stability … (in words)” below) ([3]; listed as glycolic acid cocrystal) was “limited stability” and the “Purity after 60° C./ambient RH, 2 weeks” value [3, 8] was 95.9%. For the same compound, the “Purity T = 0” value [3, 8] was 96.9%.
With NS(=O)(=O)OC[C@@H]1C[C@@H](n2ccc3c(N[C@H]4CCc5ccccc54)ncnc32)C[C@@H]1O [Form B, ((1S,2S,4R)-4-{4-[(1S)-2,3-dihydro-1H-inden-1-ylamino]-7H-pyrrolo[2,3-d]pyrimidin-7-yl}-2-hydroxycyclopentyl)methyl sulfamate] the “Observations After Stress” value ([1]; ~75% RH stress, ~3 days) was “Free flowing solids”, the “Observations After Stress” value ([1]; ~97% RH stress, ~2 days) was “Free flowing solids” and the “Solubility Estimate” value [2] was <1 mg/mL. For the same compound, the “Purity after 60° C./75% RH, 2 weeks” value [3, 9] was 93.9%, the “Chemical stability … (in words)” value ([3]; listed as hippuric acid cocrystal) was “little decomposition; also recorded: improvement in stability over the current MLN4924 HCl form” and the “Purity after 60° C./ambient RH, 2 weeks” value [3, 9] was 94.1%. For the same compound, the “Purity T = 0” value [3, 9] was 94.4%.
With NS(=O)(=O)OC[C@@H]1C[C@@H](n2ccc3c(N[C@H]4CCc5ccccc54)ncnc32)C[C@@H]1O [Form F, ((1S,2S,4R)-4-{4-[(1S)-2,3-dihydro-1H-inden-1-ylamino]-7H-pyrrolo[2,3-d]pyrimidin-7-yl}-2-hydroxycyclopentyl)methyl sulfamate] the “Observations After Stress” value ([1]; ~75% RH stress, ~3 days) was “Free flowing solids”, the “Observations After Stress” value ([1]; ~97% RH stress, ~2 days) was “Free flowing solids” and the “Chemical stability … (in words)” value [4] was “improvement in stability over the current MLN4924 HCl form”. The “Purity after 60° C./75% RH, 2 weeks” value ([3]; listed as Saccharin (Form F)) was 91.0%, the “Purity after 60° C./ambient RH, 2 weeks” value ([3]; listed as Saccharin (Form F)) was 91.2% and the “Purity T = 0” value ([3]; listed as Saccharin (Form F)) was 91.2%. The “Purity T = 0” value ([3]; listed as saccharin cocrystal) was “about 91%”.
With NS(=O)(=O)OC[C@@H]1C[C@@H](n2ccc3c(N[C@H]4CCc5ccccc54)ncnc32)C[C@@H]1O [Form G, ((1S,2S,4R)-4-{4-[(1S)-2,3-dihydro-1H-inden-1-ylamino]-7H-pyrrolo[2,3-d]pyrimidin-7-yl}-2-hydroxycyclopentyl)methyl sulfamate] the “Observations After Stress” value ([1]; ~75% RH stress, ~3 days) was “Free flowing solids”, the “Observations After Stress” value ([1]; ~97% RH stress, ~2 days) was “Slightly tacky solids” and the “Observations After Stress” value ([1]; ~97% RH stress, ~2 days, listed as solvated piperazine cocrystal) was “slightly tacky”.
For NS(=O)(=O)OC[C@@H]1C[C@@H](n2ccc3c(N[C@H]4CCc5ccccc54)ncnc32)C[C@@H]1O [Form H, ((1S,2S,4R)-4-{4-[(1S)-2,3-dihydro-1H-inden-1-ylamino]-7H-pyrrolo[2,3-d]pyrimidin-7-yl}-2-hydroxycyclopentyl)methyl sulfamate], the “Observations After Stress” value ([1]; ~75% RH stress, ~3 days) was “Free flowing solids”, the “Observations After Stress” value ([1]; ~97% RH stress, ~2 days) was “Free flowing solids” and the solubility [5] was < 1000 µg/mL.
With NS(=O)(=O)OC[C@@H]1C[C@@H](n2ccc3c(N[C@H]4CCc5ccccc54)ncnc32)C[C@@H]1O [Form J, ((1S,2S,4R)-4-{4-[(1S)-2,3-dihydro-1H-inden-1-ylamino]-7H-pyrrolo[2,3-d]pyrimidin-7-yl}-2-hydroxycyclopentyl)methyl sulfamate] the “Observations After Stress” value ([1]; ~75% RH stress, ~3 days) was “Free flowing solids” and the “Observations After Stress” value ([1]; ~97% RH stress, ~2 days) was “Free flowing solids”.
For NS(=O)(=O)OC[C@@H]1C[C@@H](n2ccc3c(N[C@H]4CCc5ccccc54)ncnc32)C[C@@H]1O [Form L, ((1S,2S,4R)-4-{4-[(1S)-2,3-dihydro-1H-inden-1-ylamino]-7H-pyrrolo[2,3-d]pyrimidin-7-yl}-2-hydroxycyclopentyl)methyl sulfamate], the “Observations After Stress” value ([1]; ~75% RH stress, ~4 days) was “Free flowing solids” and the “Observations After Stress” value ([1]; ~97% RH stress, ~1 day) was “Free flowing solids”.
For NS(=O)(=O)OC[C@@H]1C[C@@H](n2ccc3c(N[C@H]4CCc5ccccc54)ncnc32)C[C@@H]1O [Form M, ((1S,2S,4R)-4-{4-[(1S)-2,3-dihydro-1H-inden-1-ylamino]-7H-pyrrolo[2,3-d]pyrimidin-7-yl}-2-hydroxycyclopentyl)methyl sulfamate], the “Observations After Stress” value ([1]; ~75% RH stress, ~4 days) was “Free flowing solids”, the “Observations After Stress” value ([1]; ~97% RH stress, ~1 day) was “Free flowing solids” and the solubility ([2]; thermodynamic from solid) was < 1000 µg/mL. The “Purity after 60° C./75% RH, 2 weeks” value [3, 10] was 99.0%, the “Chemical stability … (in words)” value ([3]; listed as malonic acid) was “highest final purity” and the “Chemical stability … (in words)” value ([3]; listed as malonic acid cocrystal) was “little decomposition; also recorded: improvement in stability over the current MLN4924 HCl form”. The “Purity after 60° C./ambient RH, 2 weeks” value [3, 10] was 99.1%, the “Purity T = 0” value [3, 10] was 99.0% and the “Purity T = 0” value ([3]; listed as malonic acid) was “highest initial purity”.
In the case of NS(=O)(=O)OC[C@@H]1C[C@@H](n2ccc3c(N[C@H]4CCc5ccccc54)ncnc32)C[C@@H]1O [Form N, ((1S,2S,4R)-4-{4-[(1S)-2,3-dihydro-1H-inden-1-ylamino]-7H-pyrrolo[2,3-d]pyrimidin-7-yl}-2-hydroxycyclopentyl)methyl sulfamate], the “Observations After Stress” value ([1]; ~75% RH stress, ~4 days) is reported as “Free flowing solids”, the “Observations After Stress” value ([1]; ~97% RH stress, ~1 day) is reported as “Free flowing solids” and the “Solubility Estimate” value [2] is reported as <1^c mg/mL.
For NS(=O)(=O)OC[C@@H]1C[C@@H](n2ccc3c(N[C@H]4CCc5ccccc54)ncnc32)C[C@@H]1O [HCl, ((1S,2S,4R)-4-{4-[(1S)-2,3-dihydro-1H-inden-1-ylamino]-7H-pyrrolo[2,3-d]pyrimidin-7-yl}-2-hydroxycyclopentyl)methyl sulfamate, reference compound], the “Form change (XRPD)” value [6] is given as “new unique crystalline XRPD pattern”, the “Chemical stability during accelerated stress condition” value [7] is given as “limited chemical stability” and the “Purity after 60° C./75% RH, 2 weeks” value [3] is given as 96.6%. For the same compound, the “Chemical stability … (in words)” value ([3]; listed as MLN4924-HCl) was “limited stability”, the “Purity after 60° C./ambient RH, 2 weeks” value [3] was 94.6% and the “Purity T = 0” value [3] was 98.2%.

— patent US11124519B2, “Cocrystal forms of ((1S,2S,4R)-4-{4-[(1S)-2,3-dihydro-1H-inden-1-ylamino]-7H-pyrrolo [2,3-d]pyrimidin-7-yl}-2-hydroxycyclopentyl) methyl sulfamate, formulations and uses thereof” (Millennium Pharmaceuticals, Inc., priority 2017, dated 2021)
